Source: PMC11877286, “Discovery of novel theophylline derivatives bearing tetrazole scaffold for the treatment of Alzheimer's disease” (RSC Advances, 2025)

Columns and labels:
AChE = target: T1, AChE (Homo sapiens, UniProt P22303); test: biochemical; conditions: five concentrations 256 μM to 16 μM, triplicate, pH 8.0 buffer
T1 construct: purchased Sigma-Aldrich
Method: AChE inhibition was assessed on a Varioskan Lux 96-well plate reader. […] The IC50 values were determined using TableCurve 2Dv4 software.

BACE1 = target: T2, BACE1 (Homo sapiens, UniProt P56817); test: BACE1 Inhibitor Screening Kit (FRET substrate); format: biochemical; conditions: 200 μM compound
T2 construct: purchased Beyotime Biotech
T2 sequence (P56817 46-501, species assumed): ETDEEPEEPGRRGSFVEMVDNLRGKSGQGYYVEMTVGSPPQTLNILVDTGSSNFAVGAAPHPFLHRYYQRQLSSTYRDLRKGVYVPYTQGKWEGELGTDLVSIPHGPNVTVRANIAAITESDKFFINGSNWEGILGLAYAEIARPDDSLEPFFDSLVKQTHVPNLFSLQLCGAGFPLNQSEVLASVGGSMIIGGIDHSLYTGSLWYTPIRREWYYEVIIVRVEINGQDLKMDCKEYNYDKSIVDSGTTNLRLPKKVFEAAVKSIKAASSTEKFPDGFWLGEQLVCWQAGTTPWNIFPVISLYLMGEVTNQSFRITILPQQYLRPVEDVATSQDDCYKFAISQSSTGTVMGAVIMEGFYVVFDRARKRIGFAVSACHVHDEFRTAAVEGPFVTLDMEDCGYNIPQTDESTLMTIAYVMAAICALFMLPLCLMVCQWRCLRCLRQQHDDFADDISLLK
Method: Briefly, BACE1 was incubated with various concentrations of compounds for 5 min at 37 °C in a black 96-well plate, followed by adding a specific fluorescence resonance energy transfer (FRET) substrate into the reaction mixture. […] The inhibitory percentage of BACE1 activity was calculated as following: I(%) = (ΔFIcontrol − ΔFIcompound) × 100/ΔFIcontrol, in which ΔFI denotes the change of fluorescent intensity per min. The inhibitory activity of compounds was initially screened at a fixed concentration of 200 μM.

T1 sequence (P22303 32-614): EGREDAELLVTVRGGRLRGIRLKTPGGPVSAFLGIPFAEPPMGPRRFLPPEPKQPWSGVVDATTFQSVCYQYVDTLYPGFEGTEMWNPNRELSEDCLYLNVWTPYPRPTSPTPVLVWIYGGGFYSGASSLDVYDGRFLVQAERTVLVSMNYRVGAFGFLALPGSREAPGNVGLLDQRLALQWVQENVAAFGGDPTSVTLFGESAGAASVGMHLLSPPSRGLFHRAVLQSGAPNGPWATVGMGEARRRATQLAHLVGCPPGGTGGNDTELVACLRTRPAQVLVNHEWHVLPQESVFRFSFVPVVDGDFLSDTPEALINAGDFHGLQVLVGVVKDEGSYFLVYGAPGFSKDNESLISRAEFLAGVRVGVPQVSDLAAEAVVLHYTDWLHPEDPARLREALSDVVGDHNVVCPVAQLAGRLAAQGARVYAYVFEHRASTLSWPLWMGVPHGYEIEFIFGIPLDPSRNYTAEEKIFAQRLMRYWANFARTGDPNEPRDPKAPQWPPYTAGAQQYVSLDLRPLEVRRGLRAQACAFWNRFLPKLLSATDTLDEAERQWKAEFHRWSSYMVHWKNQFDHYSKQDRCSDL

Row | Compound | IC50 (AChE) [µM] | inhibition at 200 µM (BACE1) [%]
1 | Cn1c(=O)c2c(ncn2Cc2nnn(CCCCC(=O)Nc3ccccc3)n2)n(C)c1=O [Compound 11] | 110 ± 17.5 | -0.32 ± 2.05
2 | Cn1c(=O)c2c(ncn2Cc2nnn(CCCCC(=O)Nc3ccc(I)cc3F)n2)n(C)c1=O [Compound 12] | 15.68 ± 0.06 | 18.2 ± 3.9
3 | COc1ccc(OC(=O)CCCCn2nnc(Cn3cnc4c3c(=O)n(C)c(=O)n4C)n2)cc1 [Compound 13] | 303 ± 34.1 | 1.4 ± 0.03
4 | Cn1c(=O)c2c(ncn2Cc2nnn(CCCCCC(=O)Nc3cccc(Cl)c3)n2)n(C)c1=O [Compound 14] | 153 ± 45 | -2.01 ± 0.83
5 | Cn1c(=O)c2c(ncn2Cc2nnn(CCCCCC(=O)Nc3ccc(Br)cc3)n2)n(C)c1=O [Compound 15] | 84.1 ± 20.2 | 8.94 ± 1.45
6 | Cn1c(=O)c2c(ncn2Cc2nnn(CCCCCC(=O)Nc3ccc(F)c(Cl)c3)n2)n(C)c1=O [Compound 16] | 115 ± 10.6 | -1.54 ± 1.19
7 | Cn1c(=O)c2c(ncn2Cc2nnn(CCCCCC(=O)Nc3ccc(I)cc3F)n2)n(C)c1=O [Compound 17] | 105 ± 12.8 | 18.7 ± 2.26
8 | Cn1c(=O)c2c(ncn2Cc2nnn(CCCCCC(=O)Oc3ccccc3)n2)n(C)c1=O [Compound 18] | 94.4 ± 8.27 | 0.07 ± 3.57
9 | COc1ccc(OC(=O)CCCCCn2nnc(Cn3cnc4c3c(=O)n(C)c(=O)n4C)n2)cc1 [Compound 19] | 267 ± 30.4 | -1.23 ± 0.35
10 | Cn1c(=O)c2c(ncn2Cc2nnn(CCCCCCC(=O)Nc3cccc(Cl)c3)n2)n(C)c1=O [Compound 20] | 221 ± 37.7 | 10.7 ± 0.54
11 | Cn1c(=O)c2c(ncn2Cc2nnn(CCCCCCC(=O)Nc3ccc(Cl)cc3)n2)n(C)c1=O [Compound 21] | 126 ± 22.4 | 12.2 ± 0.47
12 | Cn1c(=O)c2c(ncn2Cc2nnn(CCCCCCC(=O)Nc3ccc(Br)cc3)n2)n(C)c1=O [Compound 22] | 63.5 ± 2.48 | 1.56 ± 3.43
13 | Cn1c(=O)c2c(ncn2Cc2nnn(CCCCCCC(=O)Nc3ccc(F)c(Cl)c3)n2)n(C)c1=O [Compound 23] | 110 ± 17.2 | 12.6 ± 0.45
14 | COc1ccc(OC(=O)CCCCCCn2nnc(Cn3cnc4c3c(=O)n(C)c(=O)n4C)n2)cc1 [Compound 24] | 106 ± 25.7 | 0.74 ± 0.17
15 | Cn1c(=O)c2c(ncn2Cc2nnnn2CCCCCCC(=O)Nc2ccc(Br)cc2)n(C)c1=O [Compound 25] | 70.3 ± 0.1 | -0.48 ± 0.76
16 | Cn1c(=O)c2c(ncn2Cc2nnnn2CCCCCCC(=O)Nc2ccc(F)c(Cl)c2)n(C)c1=O [Compound 26] | 55.4 ± 18.6 | 8.89 ± 0.49
17 | Cn1c(=O)c2c(ncn2Cc2nnnn2CCCCCCC(=O)Nc2ccc(I)cc2F)n(C)c1=O [Compound 27] | 143 ± 23.1 | 7.69 ± 0.86
